We go through two compounds from paper PMC10714399, “Open Source Antibiotics: Simple Diarylimidazoles Are Potent against Methicillin-Resistant Staphylococcus aureus” (ACS Infectious Diseases, 2023).

Converted amounts (≈) assume the structure as drawn. “And” between values parts separate entries of the source, which are not always exact repeats. Identical values can stand only once. Like-named read-outs stand apart in the source and are kept apart here. Where only a bound is given, the exact number is not on record here.

A short description of data set [1]: In vitro metabolic stability, human liver microsomes (Monash). It is filed as in vitro ADME. On the procedure: (§1) The metabolic stability assay was performed by incubating each test compound with a suspension of liver microsomes (0.4 mg/mL protein, 1 μM substrate, 37 °C). Microsomes were purchased from XenoTech. The metabolic reaction was initiated by the addition of an NADPH-regenerating system and quenched at various time points over a 60 min incubation by the addition of acetonitrile containing metolazone as an internal standard. Control samples (containing no NADPH) were included (quenched at 2, 30, and 60 min) to monitor for potential degradation in the absence of cofactor. […]
(§2) d) In Vitro Metabolic Stability
(§3) The metabolic stability assay was performed by incubating each test compound with a suspension of liver
(§4) microsomes (0.4 mg/mL, 37°C). The metabolic reaction was initiated by the addition of an NADPH-regenerating
(§5) system and quenched at various time points over a 60 minute incubation by the addition of acetonitrile containing
(§6) metolazone as internal standard. Control samples (containing no NADPH) were included (quenched at 2, 30 and 60
(§7) minutes) to monitor for potential degradation in the absence of cofactor.
(§8) The human liver microsomes used in this experiment were supplied by XenoTech, lot # 1710084.The rat liver
(§9) microsomes used in this experiment were supplied by XenoTech, lot # 1610290. Microsomal incubations were
(§10) performed at a substrate concentration of 1 µM.
(§11) Data analysis and interpretation:
(§12) Substrate depletion as a function of time was analysed as described by Obach (1999) Drug Metab. Dispos., 27:1350-
(§13) 1359. Intrinsic clearance (CLint) values were classified at the limits of low and high clearance bands based on a
(§14) rearrangement of the well stirred model of hepatic elimination. It should be noted that the potential impact of
(§15) compound binding (either in microsomes or in blood) on the relationship between in vitro intrinsic clearance and
(§16) hepatic clearance in vivo has not been accounted for in these studies.
(§17) In Vitro Intrinsic Clearance
(§18) Species (µL/min/mg protein)
(§19) Low Clearance High Clearance
(§20) Experimental results are tabulated on the following page(s).
(§21) (1 picture or pasted object on this page, not shown here)

Data set [2] is described as follows: Distribution coefficient estimation using chromatography, gLogD (Monash). The class given is physicochemical.
Description: Partition coefficient values (LogD) of the test compounds were estimated at pH 7.4 by the correlation of their chromatographic retention properties against the characteristics of a series of standard compounds with known partition coefficient values. The method employed is a gradient HPLC-based derivation of the method developed by Lombardo.[42] […]
c) Distribution Coefficient Estimation using Chromatography (gLogDpH)
Partition coefficient values (LogD) of the test compounds were estimated at pH 7.4 by correlation of their
chromatographic retention properties against the characteristics of a series of standard compounds with known
partition coefficient values. […]
(§22) In Vitro Intrinsic Clearance […]
as §20, §21

The subject of data set [3] is Staphylococcus aureus NCTC 13373 (mecA-positive; methicillin-resistant). The data set is described as follows: In vitro antibacterial activity, MIC (UCL School of Pharmacy assay), MRSA. It is filed as cell-based. Conditions: for MIC: Staphylococcus aureus. The procedure, abridged: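 Each organism was taken from overnight tryptone soya agar, suspended in PBS at A600 0.1, diluted 1:100 in isosensitest broth and added to serially diluted compound (32 to 0.03 μg/mL).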

Data set [4] is described as follows: Kinetic solubility estimation using nephelometry (Monash). The class given is physicochemical. The conditions noted are these: for solubility kinetic at 30 min: kinetic from dmso stock. On the procedure:
Compound in DMSO was spiked into either pH 6.5 phosphate buffer or 0.01 M HCl (approximately pH 2.0) with the final DMSO concentration being 1%. […]
b) Kinetic Solubility Estimation using Nephelometry (SolpH)
Compound in DMSO was spiked into either pH 6.5 phosphate buffer or 0.01 M HCl (approx pH 2.0) with the final
DMSO concentration being 1%. After 30 minutes had elapsed, samples were then analysed via Nephelometry to
determine a solubility range. See Bevan and Lloyd (2000) Anal Chem, 72:1781-1787. […]
as §22, §20, §21

Data set [5] is described as follows: Rat liver microsome (RLM) metabolic stability (UNC). The conditions noted are these: rat liver microsomes. It is filed as in vitro ADME. An excerpt:
Supplement id3c00286_si_002.xlsx, sheet "Series 2 Data" | column: RLM Clint (mL/min/kg) (UNC); RLM t1/2 (min) (UNC); RLM E (UNC)

A short description of data set [6]: In vitro metabolic stability, rat liver microsomes (Monash). It is filed as in vitro ADME. The method, then: as §1, §2, §3, §4, §5, §6, §7, §8, §9, §10, §11, §12, §13, §14, §15, §16, §17, §18, §19, §20, §21
Data set [7] can be described thus: Mouse liver microsome (MLM) metabolic stability (UNC). It is filed as in vitro ADME. The text has this:
Supplement id3c00286_si_002.xlsx, sheet "Series 2 Data" | column: MLM Clint (mL/min/kg) (UNC); MLM t1/2 (min) (UNC); MLM E (UNC)

A further data set deals with p38 kinase. The arrangement: method as in earlier work. The conditions noted are these: cited from earlier work.
Setting [8] is: NADPH, read-out: CLint, in vitro.

On to `c1ccc(-c2nc3n(c2-c2ccc4c(c2)OCO4)CCC3)nc1` [OSA_000812], for which, in data set [1] (Monash), the “HLM Clint (Monash)” value came out at 28 µL/min/mg and the “HLM t1/2 (Monash)” value is 62 min. Further, the chromatographic logD in data set [2] (gradient HPLC retention against standard compounds, pH 7.4) was 1.5. For the same compound, in data set [3] (UCL, read-out: MRSA MIC (UCL)), the minimum inhibitory concentration (MIC) was 32 µg/mL (≈ 105 µM). Also, the solubility kinetic at 30 min in data set [4] (0.01 M HCl, simulated gastric fluid, pH 2.0, read-out: Sol (pH 2.0) (Monash)) is > 100 µg/mL. In addition, in data set [4] (pH 6.5 phosphate buffer, pH 6.5, aqueous buffer, read-out: Sol (pH 6.5) (Monash)), the solubility kinetic at 30 min was 50 to 100 µg/mL (≈ 164 to 328 µM). In data set [5], the CLint scaled came to 142 mL/min/kg and the “RLM E (UNC)” value is 0.669. The half-life in data set [5] (read-out: RLM t1/2 (UNC)) is 17.7 min. Moreover, in data set [6] (Monash), the “RLM Clint (Monash)” value turned out to be 59 µL/min/mg and the “RLM t1/2 (Monash)” value is recorded as 29 min. For the same compound, in data set [7] (mouse liver microsomes), the “MLM Clint (UNC)” value was 677 mL/min/kg; the “MLM E (UNC)” value was 0.864 and 0.883; the “MLM t1/2 (UNC)” value is given as 8.3 min. In data set [7] (mouse, liver microsomes), this compound displayed a CLint scaled of 569 mL/min/kg. Besides, the half-life in data set [7] (mouse, liver microsomes, read-out: MLM t1/2 (UNC)) turned out to be 9.87 min.

Take `c1ccc(-c2nc3n(c2-c2ccc4c(c2)OCO4)CCC3)nc1` [compound 812]: the microsomal CLint at 1 µM is 28 µL/min/mg in data set [1] (setting [8]) and 59 µL/min/mg in data set [6] (setting [8]). Further, the half-life at 1 µM came to 62 min in data set [1] (NADPH, read-out: T1/2) and 29 min in data set [6] (NADPH, read-out: T1/2). In addition, the “gLogD at pH 7.4” value in data set [2] is given as 1.5. In data set [3], the “activity against MRSA, in words” value is “MRSA-inactive”. The MIC in data set [3] (16 h, read-out: MRSA MIC) is > 32 µg/mL; in data set [3] (read-out: MRSA MIC), 32 µg/mL (≈ 105 µM). The “Sol 6.5” value in data set [4] (pH 6.5 phosphate buffer) is 50 to 100 µg/mL. For the same compound, the “inhibition of p38 kinase” value with p38 kinase is on record as “no inhibition”.
